Literature values as cited in PMC12697872, “Rethinking the AI Paradigm for Solubility Prediction of Drug‑Like Compounds with Dual‐Perspective Modeling and Experimental Validation” (Advanced Science, 2025).
Like-named read-outs stand apart in the source and are kept apart here.

How the values were obtained:
[1] = cited from earlier work; for LogS(mol/L): SC2-1 dataset (Second Solubility Challenge, tight subset), aqueous solubility; for Class: SC2-1 dataset, aqueous solubility class 0-6
[2] = experimental aqueous solubility as logS, cited from earlier work
[3] = sheet "DrugBank" of Supplement 2, ref DrugBank
[4] = sheet "DrugBank", ref DrugBank database

SMILES | LogS(mol/L) [1] [mol/L] | Class [1] | ex_logS [2, 3] | ex_logS [2, 4]
Cc1c(O)cccc1C(=O)N[C@@H](CSc1ccccc1)[C@H](O)CN1C[C@H]2CCCC[C@H]2C[C@H]1C(=O)NC(C)(C)C | -6.21 | 6 (Practically insoluble or insoluble (6)) | – | –
O=C(CCCN1CCC(O)(c2ccc(Cl)cc2)CC1)c1ccc(F)cc1 | -5.71 | 6 (Practically insoluble or insoluble (6)) | – | –
COc1ccc2cc(CCC(C)=O)ccc2c1 [COc1ccc2cc(CCC(C)=O)ccc2c1] | -4.4 | 6 (Practically insoluble or insoluble (6)) | – | –
N[C@@H](Cc1ccc(O)c(O)c1)C(=O)O [N[C@@H](Cc1ccc(O)c(O)c1)C(=O)O] | -1.76 | 4 (Slightly soluble (4)) | – | –
COc1ccc([C@@H]2Sc3ccccc3N(CCN(C)C)C(=O)[C@@H]2OC(C)=O)cc1 | -3.02 | 5 (Very slightly soluble (5)) | – | –
CC(=O)OCC(=O)[C@@]1(OC(C)=O)[C@@H](C)C[C@H]2[C@@H]3C[C@H](F)C4=CC(=O)C=C[C@]4(C)[C@@]3(F)[C@@H](O)C[C@@]21C | -4.82 | 6 (Practically insoluble or insoluble (6)) | – | –
CCCN(CCC)S(=O)(=O)c1ccc(C(=O)O)cc1 [CCCN(CCC)S(=O)(=O)c1ccc(C(=O)O)cc1] | -4.83 | 6 (Practically insoluble or insoluble (6)) | – | –
Nc1ccc(S(=O)(=O)Nc2nccs2)cc1 [Nc1ccc(S(=O)(=O)Nc2nccs2)cc1] | -2.62 | 5 (Very slightly soluble (5)) | – | –
Oc1ccc(/C=C/c2cc(O)cc(O)c2)cc1 [Oc1ccc(/C=C/c2cc(O)cc(O)c2)cc1] | – | 6 (Practically insoluble or insoluble (6)) | – | –
C[C@]12C[C@H](O)[C@H]3[C@@H](CCC4=CC(=O)CC[C@@]43C)[C@@H]1CC[C@@H]2C(=O)CO | -3.29 | 5 (Very slightly soluble (5)) | – | –
CC(CN1c2ccccc2Sc2ccccc21)N(C)C (stereo not drawn) [CC(CN1c2ccccc2Sc2ccccc21)N(C)C] | -4.38 | 6 (Practically insoluble or insoluble (6)) | – | –
CCn1cc(C(=O)O)c(=O)c2cc(F)c(N3CCNCC3)cc21 | -2.88 | 5 (Very slightly soluble (5)) | – | –
CS(=O)(=O)c1ccc(C2=C(c3ccccc3)C(=O)OC2)cc1 | -4.61 | 6 (Practically insoluble or insoluble (6)) | – | –
COc1ccc2c(c1OC)C(=O)O[C@@H]2[C@H]1c2c(cc3c(c2OC)OCO3)CCN1C | -4.48 | 6 (Practically insoluble or insoluble (6)) | – | –
CCC1(c2ccccc2)C(=O)NCNC1=O [CCC1(c2ccccc2)C(=O)NCNC1=O] | -2.53 | 5 (Very slightly soluble (5)) | – | –
Cc1ccnc2c1NC(=O)c1cccnc1N2C1CC1 [Cc1ccnc2c1NC(=O)c1cccnc1N2C1CC1] | – | 5 (Very slightly soluble (5)) | – | –
COc1ccc(Cc2nccc3cc(OC)c(OC)cc23)cc1OC [COc1ccc(Cc2nccc3cc(OC)c(OC)cc23)cc1OC] | -4.33 | 6 (Practically insoluble or insoluble (6)) | – | –
COC(=O)Nc1nc2ccccc2[nH]1 [COC(=O)Nc1nc2ccccc2[nH]1] | -4.56 | 6 (Practically insoluble or insoluble (6)) | – | –
CC(=O)N1CCN(c2ccc(OC[C@H]3CO[C@](Cn4ccnc4)(c4ccc(Cl)cc4Cl)O3)cc2)CC1 (racemic) | -5.47 | 6 (Practically insoluble or insoluble (6)) | – | –
c1ccc(Nc2ccccc2)cc1 [c1ccc(Nc2ccccc2)cc1] | – | 6 (Practically insoluble or insoluble (6)) | – | –
O=C1C(O)=C(C2CCC(c3ccc(Cl)cc3)CC2)C(=O)c2ccccc21 (stereo not drawn) | -6.07 | 6 (Practically insoluble or insoluble (6)) | – | –

SMILES | LogS(mol/L) [1] [mol/L] | Class [1] | ex_logS [2, 3] | ex_logS [2, 4]
O=C1CN=C(c2ccccn2)c2cc(Br)ccc2N1 [O=C1CN=C(c2ccccn2)c2cc(Br)ccc2N1] | -3.39 | 5 (Very slightly soluble (5)) | – | –
C[C@@H]1C[C@H]2[C@@H]3CCC4=CC(=O)C=C[C@]4(C)[C@@]3(F)[C@@H](O)C[C@]2(C)[C@@]1(O)C(=O)CO | -3.56 | 5 (Very slightly soluble (5)) | – | –
COc1ccc2c(c1)c(CC(=O)O)c(C)n2C(=O)c1ccc(Cl)cc1 | -5.48 | 6 (Practically insoluble or insoluble (6)) | – | –
CC(C(=O)O)c1ccc(N2Cc3ccccc3C2=O)cc1 (stereo not drawn) [CC(C(=O)O)c1ccc(N2Cc3ccccc3C2=O)cc1] | -4.65 | 6 (Practically insoluble or insoluble (6)) | – | –
CC(C)NCC(O)COc1cccc2[nH]ccc12 (stereo not drawn) [CC(C)NCC(O)COc1cccc2[nH]ccc12] | -3.75 | 6 (Practically insoluble or insoluble (6)) | – | –
COc1cc(N)c(Cl)cc1C(=O)NC1CCN(CCCOc2ccc(F)cc2)CC1OC (stereo not drawn) | -6.78 | 6 (Practically insoluble or insoluble (6)) | – | –
NS(=O)(=O)c1cc2c(cc1Cl)NC(CSCc1ccccc1)=NS2(=O)=O | -4.84 | 6 (Practically insoluble or insoluble (6)) | – | –
CN(C)CCCN1c2ccccc2Sc2ccccc21 [CN(C)CCCN1c2ccccc2Sc2ccccc21] | -4.45 | 6 (Practically insoluble or insoluble (6)) | – | –
c1ccc2c(c1)[nH]c1ccccc12 [c1ccc2c(c1)[nH]c1ccccc12] | -5.19 | 6 (Practically insoluble or insoluble (6)) | – | –
O=c1[nH]c(=O)c2[nH]cnc2[nH]1 [O=c1[nH]c(=O)c2[nH]cnc2[nH]1] | – | 6 (Practically insoluble or insoluble (6)) | – | –
O=C1CCc2cc(OCCCCc3nnnn3C3CCCCC3)ccc2N1 [O=C1CCc2cc(OCCCCc3nnnn3C3CCCCC3)ccc2N1] | -4.93 | 6 (Practically insoluble or insoluble (6)) | – | –
C/C=C/C1=C(C(=O)O)N2C(=O)[C@@H](NC(=O)[C@H](N)c3ccc(O)cc3)[C@H]2SC1 | -1.68 | 4 (Slightly soluble (4)) | – | –
Cc1ccccc1N1C(=O)c2cc(S(N)(=O)=O)c(Cl)cc2NC1C (stereo not drawn) | -3.88 | 6 (Practically insoluble or insoluble (6)) | – | –
CC1=C(C(=O)O)N2C(=O)[C@@H](NC(=O)[C@H](N)C3=CCC=CC3)[C@H]2SC1 | -1.18 | 3 (Sparingly soluble (3)) | – | –
CC(=O)Nc1nnc(S(N)(=O)=O)s1 [CC(=O)Nc1nnc(S(N)(=O)=O)s1] | -2.38 | 5 (Very slightly soluble (5)) | – | –
Nc1nc(=O)c2nc(CNc3ccc(C(=O)N[C@@H](CCC(=O)O)C(=O)O)cc3)cnc2[nH]1 | -5.96 | 6 (Practically insoluble or insoluble (6)) | – | –
CCC(C)C1(CC)C(=O)NC(=O)NC1=O (stereo not drawn) [CCC(C)C1(CC)C(=O)NC(=O)NC1=O] | -2.22 | 4 (Slightly soluble (4)) | – | –
CN1c2c(nc(N)[nH]c2=O)NC[C@@H]1CNc1ccc(C(=O)N[C@@H](CCC(=O)O)C(=O)O)cc1 [Levomefolic acid] | – | – | -3.185 | –
CN1CCCN=C1COC(=O)C(O)(c1ccccc1)C1CCCCC1 (stereo not drawn) [Oxyphencyclimine] | – | – | -4.717 | –
CCN1C(=O)NC(c2ccccc2)C1=O (stereo not drawn) [Ethotoin] | – | – | -1.587 | –
CN(C)CCCN1c2ccccc2Sc2ccc(Cl)cc21 [Chlorpromazine] | – | – | – | -5.097

SMILES | LogS(mol/L) [1] [mol/L] | Class [1] | ex_logS [2, 3] | ex_logS [2, 4]
NCCc1ccc(O)c(O)c1 [Dopamine] | – | – | 0.593 | –
CC(C)Cc1ccc(C(C)C(=O)O)cc1 (stereo not drawn) [Ibuprofen] | – | – | – | -3.992
CC12CCC(CC1=O)C2(C)C (stereo not drawn) [Camphor] | – | – | – | -1.978
CCOC(=O)c1ccc(O)cc1 [ethyl-p-hydroxybenzoate] | – | – | -2.35 | –
NC(=O)C[C@H](N)C(=O)O [Asparagine] | – | – | – | -0.6526
CCN(CC)C(=S)SSC(=S)N(CC)CC [Disulfiram] | – | – | – | -4.86
Cc1cnc(NC(=O)C2=C(O)c3ccccc3S(=O)(=O)N2C)s1 [Meloxicam] | – | – | – | -4.467
COc1cc(C(=O)NCc2ccc(OCCN(C)C)cc2)cc(OC)c1OC [Trimethobenzamide] | – | – | -3.987 | –
Nc1nc2c(ncn2CCC(CO)CO)c(=O)[nH]1 [Penciclovir] | – | – | – | -2.173
Nc1nc(CC(=O)Nc2ccc(CCNC[C@H](O)c3ccccc3)cc2)cs1 [Mirabegron] | – | – | – | -3.684
CC[C@H]1OC(=O)[C@H](C)[C@@H](O[C@H]2C[C@@](C)(OC)[C@@H](O)[C@H](C)O2)[C@H](C)[C@@H](O[C@@H]2O[C@H](C)C[C@H](N(C)C)[C@H]2O)[C@](C)(OC)C[C@@H](C)C(=O)[C@H](C)[C@@H](O)[C@]1(C)O [Clarithromycin] | – | – | – | -6.355
O=C1CCC(N2C(=O)c3ccccc3C2=O)C(=O)N1 (stereo not drawn) [Thalidomide] | – | – | -2.676 | –
CN[C@H](CC(C)C)C(=O)N[C@H]1C(=O)N[C@@H](CC(N)=O)C(=O)N[C@H]2C(=O)N[C@H]3C(=O)N[C@H](C(=O)N[C@H](C(=O)O)c4cc(O)cc(O)c4-c4cc3ccc4O)[C@H](O[C@H]3C[C@](C)(N)[C@@H](O)[C@H](C)O3)c3ccc(c(Cl)c3)Oc3cc2cc(c3O[C@@H]2O[C@H](CO)[C@@H](O)[C@H](O)[C@H]2O[C@H]2C[C@](C)(NCc3ccc(-c4ccc(Cl)cc4)cc3)[C@@H](O)[C@H](C)O2)Oc2ccc(cc2Cl)[C@H]1O [Oritavancin] | – | – | – | -2.2536
NS(=O)(=O)c1cc2c(cc1Cl)N=C(CSCc1ccccc1)NS2(=O)=O [Benzthiazide] | – | – | -4.686 | –
CNC(=O)Oc1ccc2c(c1)[C@]1(C)CCN(C)[C@@H]1N2C [Physostigmine] | – | – | -1.55 | –
NCCCNCCSP(=O)(O)O [Amifostine] | – | – | – | 0.6691
O=C(O)c1ccccc1Nc1cccc(C(F)(F)F)c1 [Flufenamic acid] | – | – | -4.4905 | –
CN1C(=O)CCS(=O)(=O)C1c1ccc(Cl)cc1 (stereo not drawn) [Chlormezanone] | – | – | – | -2.039
NC(=O)N/N=C/c1ccc([N+](=O)[O-])o1 [Nitrofural] | – | – | – | -2.975
CCCC(C)(COC(N)=O)COC(N)=O [Meprobamate] | – | – | -1.667 | –
